In patent US9763445B2, “Safened herbicidal compositions comprising a pyridine carboxylic acid herbicide” (Dow AgroSciences, LLC, priority 2014, dated 2017):

How the values were obtained:
[1] = test system: spring barley (HORVS); assay: Postemergence greenhouse trial, % visual injury on spring barley; format: in vivo, Hordeum vulgare; settings: HORVS
Description: (§1) Seeds of the desired test plant species were planted in Sun Gro MetroMix® 306 planting mixture, which typically has a pH of 6.0 to 6.8 and an organic matter content of about 30 percent, in plastic pots with a surface area of 103.2 square centimeters (cm^2). When required to ensure good germination and healthy plants, a fungicide treatment and/or other chemical or physical treatment was applied. The plants were grown for 7-36 days (d) in a greenhouse with an approximate 14-hour (h) photoperiod which was maintained at about 23° C. during the day and 22° C. during the night. Nutrients and water were added on a regular basis and supplemental lighting was provided with overhead metal halide 1000-Watt lamps as necessary. The plants were employed for testing when they reached the second or third true leaf stage.
(§2) Weighed amounts of technical material were dissolved in a volume of 97:3 volume per volume (v/v) acetone/dimethyl sulfoxide (DMSO) to stock solutions. […] The concentrated stock solutions were diluted with an aqueous mixture of 1.5% v/v of Agri-dex crop oil concentrate to provide the appropriate application rates. Compound requirements are based upon a 12 milliliter (mL) application volume at a rate of 187 liters per hectare (L/ha). Stocks solutions of the safeners were prepared following the same procedure. Spray solutions of the safeners and experimental compound mixtures were prepared by adding the stock solutions to the appropriate amount of dilution solution to form a 12 mL spray solution in two-way combinations. Formulated compounds were applied to the plant material with an overhead Mandel track sprayer equipped with 8002E nozzles calibrated to deliver 187 L/ha over an application area of 0.503 square meters (m^2) at a spray height of 18 inches (43 centimeters (cm)) above average plant canopy. Control plants were sprayed in the same manner with the solvent blank. All herbicide application (component a) rates are in g ae/ha and all safener (component b) rates are in g ai/ha.
(§3) The treated plants and control plants were placed in a greenhouse as described above and watered by sub-irrigation to prevent wash-off of the test compounds. After 20-22 d, the condition of the test plants as compared with that of the control plants was determined visually and scored on a scale of 0 to 100 percent where 0 corresponds to no injury and 100 corresponds to complete kill. The condition of the test plants was compared with that of the control plants as determined visually and scored on a scale of 0 to 100 percent, where 0 corresponds to no injury and 100 corresponds to complete kill. Colby's equation was used to determine the herbicidal effects expected from the mixtures.
The safener cloquintocet-mexyl was combined with compound 1, compound 2, compound 3, compound 7, compound 8, compound 9, compound 10, compound 11, compound 12, compound 13, compound 14, compound 15, compound 16, compound 17, compound 18, compound 19, and compound 20, and applied to spring wheat (TRZAS), winter wheat (TRZAW), and spring barley (HORVS) and the phytotoxicity of the herbicidal compositions was measured. […]

[2] = test system: kochia (KCHSC); assay: Postemergence greenhouse trial, % visual injury on kochia; format: in vivo, Kochia scoparia; settings: KCHSC; for % visual injury, Ob: CQC-m 0 g/ha
Description: as §1, §2
as §3, with “mixtures. […]” for “mixtures.”

[3] = test system: Russian thistle (SASKR); assay: Postemergence greenhouse trial, % visual injury on Russian thistle; format: in vivo, Salsola kali; settings: SASKR
[4] = test system: wild mustard (SINAR); assay: Postemergence greenhouse trial, % visual injury on wild mustard; format: in vivo, Sinapis arvensis; settings: SINAR; for % visual injury, Ob: CQC-m 0 g/ha
Description: as §1, §2
as §3, with “mixtures. […]” for “mixtures.”

[5] = test system: lambsquarters (CHEAL); assay: Postemergence greenhouse trial, % visual injury on lambsquarters; format: in vivo, Chenopodium album; settings: CHEAL
In short: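 Visual injury, 0 (none) to 100 (complete kill), rated 20-22 d after overhead track-sprayer application at 187 L/ha; Colby's equation gave expected mixture responses. Herbicide (g ae/ha) and cloquintocet-mexyl safener (g ai/ha) diluted in aqueous 1.5% v/v Agri-dex, applied to weeds at 2–3 true leaves.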

[6] = compound 4.375 g/ha, CQC-m 0 g/ha
[7] = compound 8.75 g/ha, CQC-m 0 g/ha
[8] = compound 17.5 g/ha, CQC-m 0 g/ha
[9] = compound 8 4.380 + CQC-m 0 g/ha

`Nc1cc(-c2ccc3cc[nH]c3c2F)nc(C(=O)O)c1Cl` [compound 15] was tested, and the “% visual injury, Ob” value [1, 6] was 0%, the “% visual injury, Ob” value [1, 7] was 0% and the “% visual injury, Ob” value [1, 8] was 0%. The “% visual injury, Ob” value ([1]; compound 35 g/ha, CQC-m 0 g/ha) was 10%, the “% visual injury, Ob” value ([1]; compound 70 g/ha, CQC-m 0 g/ha) was 10% and the “% visual injury, Ob” value ([2]; compound 4.375 g/ha) was 10%. For the same compound, the “% visual injury, Ob” value ([2]; compound 8.75 g/ha) was 10%, the “% visual injury, Ob” value ([2]; compound 17.5 g/ha) was 50% and the “% visual injury, Ob” value ([2]; compound 35 g/ha) was 60%. The “% visual injury, Ob” value ([2]; compound 70 g/ha) was 75%, the “% visual injury, Ob” value [3, 6] was 10% and the “% visual injury, Ob” value [3, 7] was 10%. For the same compound, the “% visual injury, Ob” value [3, 8] was 10%, the “% visual injury, Ob” value ([3]; compound 35 g/ha, CQC-m 0 g/ha) was 60% and the “% visual injury, Ob” value ([3]; compound 70 g/ha, CQC-m 0 g/ha) was 70%. The “% visual injury, Ob” value ([4]; compound 4.375 g/ha) was 93%, the “% visual injury, Ob” value ([4]; compound 8.75 g/ha) was 100% and the “% visual injury, Ob” value ([4]; compound 17.5 g/ha) was 100%. The “% visual injury, Ob” value ([4]; compound 35 g/ha) was 100% and the “% visual injury, Ob” value ([4]; compound 70 g/ha) was 100%.
In the case of `COC(=O)c1nc(-c2ccc3cc[nH]c3c2F)c(F)c(N)c1OC` [compound 12], the “% visual injury, Ob” value ([1]; compound 4.380 g/ha, CQC-m 0) is reported as 18%, the “% visual injury, Ob” value ([1]; compound 8.75 g/ha, CQC-m 0) is reported as 23% and the “% visual injury, Ob” value ([1]; compound 17.5 g/ha, CQC-m 0) is reported as 37%. The “% visual injury, Ob” value ([1]; compound 35 g/ha, CQC-m 0) was 47%, the “% visual injury, Ob” value ([1]; compound 70 g/ha, CQC-m 0) was 60% and the pest or weed control at 4.38 g/ha ([5]; Chenopodium album, post-emergence, compound 4.380 g/ha, CQC-m 0, read-out: % visual injury, Ob) was 40%. The pest or weed control at 8.75 g/ha ([5]; Chenopodium album, post-emergence, compound 8.75 g/ha, CQC-m 0, read-out: % visual injury, Ob) was 50%, the pest or weed control at 17.5 g/ha ([5]; Chenopodium album, post-emergence, compound 17.5 g/ha, CQC-m 0, read-out: % visual injury, Ob) was 72% and the pest or weed control at 35 g/ha ([5]; Chenopodium album, post-emergence, compound 35 g/ha, CQC-m 0, read-out: % visual injury, Ob) was 88%. It also gave a pest or weed control at 70 g/ha ([5]; Chenopodium album, post-emergence, compound 70 g/ha, CQC-m 0, read-out: % visual injury, Ob) of 91%, a pest or weed control at 4.38 g/ha ([2]; Bassia scoparia, post-emergence, compound 4.380 g/ha, CQC-m 0, read-out: % visual injury, Ob) of 15% and a pest or weed control at 8.75 g/ha ([2]; Bassia scoparia, post-emergence, compound 8.75 g/ha, CQC-m 0, read-out: % visual injury, Ob) of 62%. The pest or weed control at 17.5 g/ha ([2]; Bassia scoparia, post-emergence, compound 17.5 g/ha, CQC-m 0, read-out: % visual injury, Ob) was 82%, the pest or weed control at 35 g/ha ([2]; Bassia scoparia, post-emergence, compound 35 g/ha, CQC-m 0, read-out: % visual injury, Ob) was 95% and the pest or weed control at 70 g/ha ([2]; Bassia scoparia, post-emergence, compound 70 g/ha, CQC-m 0, read-out: % visual injury, Ob) was 95%. For the same compound, the “% visual injury, Ob” value ([3]; compound 4.380 g/ha, CQC-m 0) was 10%, the “% visual injury, Ob” value ([3]; compound 8.75 g/ha, CQC-m 0) was 33% and the “% visual injury, Ob” value ([3]; compound 17.5 g/ha, CQC-m 0) was 52%. For the same compound, the “% visual injury, Ob” value ([3]; compound 35 g/ha, CQC-m 0) was 72% and the “% visual injury, Ob” value ([3]; compound 70 g/ha, CQC-m 0) was 88%.
In the case of `COc1c(C(=O)O)nc(-c2ccc3cc[nH]c3c2F)c(F)c1N` [compound 13], the “% visual injury, Ob” value [1, 6] is reported as 30%, the “% visual injury, Ob” value [1, 7] is reported as 38% and the “% visual injury, Ob” value [1, 8] is reported as 55%. For the same compound, the “% visual injury, Ob” value ([1]; compound 35 g/ha, CQC-m 0 g/ha) was 64%, the “% visual injury, Ob” value ([1]; compound 70 g/ha, CQC-m 0 g/ha) was 73% and the “% visual injury, Ob” value ([2]; compound 4.375 g/ha) was 55%. For the same compound, the “% visual injury, Ob” value ([2]; compound 8.75 g/ha) was 84%, the “% visual injury, Ob” value ([2]; compound 17.5 g/ha) was 89% and the “% visual injury, Ob” value ([2]; compound 35 g/ha) was 92%. The “% visual injury, Ob” value ([2]; compound 70 g/ha) was 93%, the “% visual injury, Ob” value [3, 6] was 50% and the “% visual injury, Ob” value [3, 7] was 65%. For the same compound, the “% visual injury, Ob” value [3, 8] was 77%, the “% visual injury, Ob” value ([3]; compound 35 g/ha, CQC-m 0 g/ha) was 83% and the “% visual injury, Ob” value ([3]; compound 70 g/ha, CQC-m 0 g/ha) was 91%. For the same compound, the “% visual injury, Ob” value ([4]; compound 4.375 g/ha) was 95%, the “% visual injury, Ob” value ([4]; compound 8.75 g/ha) was 100% and the “% visual injury, Ob” value ([4]; compound 17.5 g/ha) was 100%. The “% visual injury, Ob” value ([4]; compound 35 g/ha) was 100% and the “% visual injury, Ob” value ([4]; compound 70 g/ha) was 100%.
In the case of `COC(=O)c1nc(-c2ccc3cc[nH]c3c2F)c(F)c(N)c1Cl` [compound 8], the “% visual injury, observed (Ob)” value [1, 9] is reported as 12%, the “% visual injury, observed (Ob)” value ([1]; compound 8 8.75 + CQC-m 0 g/ha) is reported as 18% and the “% visual injury, observed (Ob)” value ([1]; compound 8 17.5 + CQC-m 0 g/ha) is reported as 31%. The “% visual injury, observed (Ob)” value ([1]; compound 8 35 + CQC-m 0 g/ha) was 43%, the “% visual injury, observed (Ob)” value ([1]; compound 8 70 + CQC-m 0 g/ha) was 53% and the “% visual injury, observed (Ob)” value [5, 9] was 86%. The “% visual injury, observed (Ob)” value ([5]; compound 8 8.75 + CQC-m 0 g/ha) was 92%, the “% visual injury, observed (Ob)” value ([5]; compound 8 17.5 + CQC-m 0 g/ha) was 99% and the “% visual injury, observed (Ob)” value ([5]; compound 8 35 + CQC-m 0 g/ha) was 100%. The “% visual injury, observed (Ob)” value ([5]; compound 8 70 + CQC-m 0 g/ha) was 100%, the “% visual injury, observed (Ob)” value [2, 9] was 69% and the “% visual injury, observed (Ob)” value ([2]; compound 8 8.75 + CQC-m 0 g/ha) was 77%. For the same compound, the “% visual injury, observed (Ob)” value ([2]; compound 8 17.5 + CQC-m 0 g/ha) was 81%, the “% visual injury, observed (Ob)” value ([2]; compound 8 35 + CQC-m 0 g/ha) was 95% and the “% visual injury, observed (Ob)” value ([2]; compound 8 70 + CQC-m 0 g/ha) was 95%. For the same compound, the “% visual injury, observed (Ob)” value [3, 9] was 61%, the “% visual injury, observed (Ob)” value ([3]; compound 8 8.75 + CQC-m 0 g/ha) was 69% and the “% visual injury, observed (Ob)” value ([3]; compound 8 17.5 + CQC-m 0 g/ha) was 83%. The “% visual injury, observed (Ob)” value ([3]; compound 8 35 + CQC-m 0 g/ha) was 85%, the “% visual injury, observed (Ob)” value ([3]; compound 8 70 + CQC-m 0 g/ha) was 90% and the “% visual injury, observed (Ob)” value [4, 9] was 76%. For the same compound, the “% visual injury, observed (Ob)” value ([4]; compound 8 8.75 + CQC-m 0 g/ha) was 82%, the “% visual injury, observed (Ob)” value ([4]; compound 8 17.5 + CQC-m 0 g/ha) was 96% and the “% visual injury, observed (Ob)” value ([4]; compound 8 35 + CQC-m 0 g/ha) was 99%. For the same compound, the “% visual injury, observed (Ob)” value ([4]; compound 8 70 + CQC-m 0 g/ha) was 98%.
